Reference: US20140058103A1, “Inhibitors of PI3K-Delta and Methods of Their Use and Manufacture” (Exelixis, Inc., priority 2010, published 2014)

Molecular target: PI3K delta (Homo sapiens, UniProt O00329)
Assay: Luciferase-coupled chemiluminescence kinase assay (ATP consumption, KinaseGlo)
Format: biochemical
How it was run: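 Compound, kinase and ATP (≤ KM) reacted 2 h at ambient temperature, then remaining ATP quantified with luciferase-luciferin (KinaseGlo) luminescence as percent consumed.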

Sequence of PI3K delta (O00329 whole entry): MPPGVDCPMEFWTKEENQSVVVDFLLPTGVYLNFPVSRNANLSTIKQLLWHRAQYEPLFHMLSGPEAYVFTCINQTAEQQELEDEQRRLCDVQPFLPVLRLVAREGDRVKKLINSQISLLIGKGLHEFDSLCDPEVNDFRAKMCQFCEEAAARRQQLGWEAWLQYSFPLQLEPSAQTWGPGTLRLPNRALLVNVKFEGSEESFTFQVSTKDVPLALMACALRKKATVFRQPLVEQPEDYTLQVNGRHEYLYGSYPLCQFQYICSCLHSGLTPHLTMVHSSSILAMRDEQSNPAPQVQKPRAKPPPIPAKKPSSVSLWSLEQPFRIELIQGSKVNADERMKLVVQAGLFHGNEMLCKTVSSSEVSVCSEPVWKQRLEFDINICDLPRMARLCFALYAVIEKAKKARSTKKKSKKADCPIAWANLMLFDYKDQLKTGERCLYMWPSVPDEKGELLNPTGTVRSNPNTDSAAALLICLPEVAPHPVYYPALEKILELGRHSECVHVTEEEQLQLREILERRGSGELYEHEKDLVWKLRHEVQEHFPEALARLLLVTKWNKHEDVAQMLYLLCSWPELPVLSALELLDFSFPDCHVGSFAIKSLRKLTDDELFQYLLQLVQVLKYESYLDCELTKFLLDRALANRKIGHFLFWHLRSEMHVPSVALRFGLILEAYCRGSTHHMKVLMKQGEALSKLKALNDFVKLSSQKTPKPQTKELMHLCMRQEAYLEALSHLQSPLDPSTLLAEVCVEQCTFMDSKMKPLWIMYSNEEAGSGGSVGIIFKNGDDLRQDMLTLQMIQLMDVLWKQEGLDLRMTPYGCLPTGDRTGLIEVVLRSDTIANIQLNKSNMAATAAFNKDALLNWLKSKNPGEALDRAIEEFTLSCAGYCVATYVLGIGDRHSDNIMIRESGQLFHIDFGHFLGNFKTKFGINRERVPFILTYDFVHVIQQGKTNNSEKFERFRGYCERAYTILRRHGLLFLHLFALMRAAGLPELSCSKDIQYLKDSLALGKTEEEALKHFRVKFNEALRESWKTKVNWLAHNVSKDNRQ
Sequence of PI3K delta (P27986 whole entry partner): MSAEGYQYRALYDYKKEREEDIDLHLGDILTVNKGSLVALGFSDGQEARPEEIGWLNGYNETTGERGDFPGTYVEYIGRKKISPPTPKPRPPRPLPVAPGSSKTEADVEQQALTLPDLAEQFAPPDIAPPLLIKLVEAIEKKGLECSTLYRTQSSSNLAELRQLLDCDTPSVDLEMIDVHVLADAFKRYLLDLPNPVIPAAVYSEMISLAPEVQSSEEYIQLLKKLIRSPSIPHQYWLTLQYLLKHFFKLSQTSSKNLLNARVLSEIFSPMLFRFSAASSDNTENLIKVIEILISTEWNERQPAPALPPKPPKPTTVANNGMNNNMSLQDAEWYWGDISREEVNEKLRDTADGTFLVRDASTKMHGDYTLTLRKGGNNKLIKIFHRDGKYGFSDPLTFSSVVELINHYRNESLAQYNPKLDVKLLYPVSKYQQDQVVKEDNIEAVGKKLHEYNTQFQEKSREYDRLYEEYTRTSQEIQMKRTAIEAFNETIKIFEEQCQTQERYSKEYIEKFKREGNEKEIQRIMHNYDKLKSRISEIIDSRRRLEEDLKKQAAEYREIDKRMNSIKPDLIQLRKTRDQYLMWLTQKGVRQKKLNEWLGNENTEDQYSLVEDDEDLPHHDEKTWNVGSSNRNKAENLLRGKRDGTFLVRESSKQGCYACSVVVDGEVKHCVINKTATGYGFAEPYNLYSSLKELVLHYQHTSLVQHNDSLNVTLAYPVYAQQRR

Compound	IC50 [nM]
Cn1cc(-c2nc3c(N4CCN(S(=O)(=O)c5ccccc5C#N)CC4)ncnc3n2C)cn1 [Compound 381, 2-({4-[9-methyl-8-(1-methyl-1H-pyrazol-4-yl)-9H-purin-6-yl]piperazin-1-yl}sulfonyl)benzonitrile]	250 to 500
Cn1cc(-c2nc3c(N4CCN(S(=O)(=O)c5cccc(C#N)c5)CC4)ncnc3n2C)cn1 [Compound 382, 3-({4-[9-methyl-8-(1-methyl-1H-pyrazol-4-yl)-9H-purin-6-yl]piperazin-1-yl)sulfonyl)benzonitrile]	250 to 500
Cn1cc(-c2nc3c(N4CCN(S(=O)(=O)c5ccc(F)cc5F)CC4)ncnc3n2C)cn1 [Compound 383, 6-{4-[(2,4-difluorophenyl)sulfonyl]piperazin-1-yl)-9-methyl-8-(1-methyl-1H-pyrazol-4-yl)-9H-purine]	500 to 1500
COc1cc(C)ccc1S(=O)(=O)N1CCN(c2ncnc3c2nc(-c2cnn(C)c2)n3C)CC1 [Compound 385, 9-methyl-6-(4-{[4-methyl-2-(methyloxy)phenyl]sulfonyl}-piperazin-1-yl)-8-(1-methyl-1H-pyrazol-4-yl)-9H-purine]	500 to 1500
Cc1cccc(Cl)c1S(=O)(=O)N1CCN(c2ncnc3c2nc(-c2cnn(C)c2)n3C)CC1 [Compound 386, 6-{4-[(2-chloro-6-methylphenyl)sulfonyl]piperazin-1-yl)-9-methyl-8-(1-methyl-1H-pyrazol-4-yl)-9H-purine]	250 to 500
COc1ccc(S(=O)(=O)N2CCN(c3ncnc4c3nc(-c3cnn(C)c3)n4C)CC2)cc1OC [Compound 387, 6-(4-{[3,4-bis(methyloxy)phenyl]sulfonyl}-piperazin-1-yl)-9-methyl-8-(1-methyl-1H-pyrazol-4-yl)-9H-purine]	500 to 1500
Cn1cc(-c2nc3c(N4CCN(S(=O)(=O)c5cccc(Cl)c5Cl)CC4)ncnc3n2C)cn1 [Compound 389, 6-{4-[(2,3-dichlorophenyl)sulfonyl]piperazin-1-yl}-9-methyl-8-(1-methyl-1H-pyrazol-4-yl)-9H-purine]	250 to 500
Cn1cc(-c2nc3c(N4CCN(S(=O)(=O)c5c(Cl)cccc5Cl)CC4)ncnc3n2C)cn1 [Compound 391, 6-{4-[(2,6-dichlorophenyl)sulfonyl]piperazin-1-yl}-9-methyl-8-(1-methyl-1H-pyrazol-4-yl)-9H-purine]	250 to 500
Cn1cc(-c2nc3c(N4CCN(S(=O)(=O)c5ccc(Cl)cc5Cl)CC4)ncnc3n2C)cn1 [Compound 392, 6-{4-[(2,4-dichlorophenyl)sulfonyl]piperazin-1-yl}-9-methyl-8-(1-methyl-1H-pyrazol-4-yl)-9H-purine]	500 to 1500
Cc1c(-c2nc3c(N4CCC5(CC4)C(=O)Nc4ccccc45)ncnc3n2C)cnn1C [Compound 393, 1′-(8-(1,5-dimethyl-1H-pyrazol-4-yl)-9-methyl-9H-purin-6-yl)spiro[indoline-3,4′-piperidin]-2-one]	500 to 1500
Cc1[nH]ncc1-c1nc2c(N3CCC(n4c(=O)[nH]c5ncccc54)CC3)ncnc2n1C [Compound 394, 1-{1-[9-methyl-8-(5-methyl-1H-pyrazol-4-yl)-9H-purin-6-yl]piperidin-4-yl}-1,3-dihydro-2H-imidazo[4,5-b]pyridin-2-one]	< 50
Cn1c(C(=O)NCCc2ccccc2)nc2c(N3CCC4(CC3)C(=O)Nc3ccccc34)ncnc21 [Compound 395, 9-methyl-6-(2-oxo-1,2-dihydro-1′H-spiro[indole-3,4′-piperidin]-1′-yl)-N-(2-phenylethyl)-9H-purine-8-carboxamide]	500 to 1500

Continued, values first:

IC50 [nM]	Compound
50 to 250	Cn1cc(-c2nc3c(N4CCN(S(=O)(=O)c5ccc(Cl)c(Cl)c5)CC4)ncnc3n2C)cn1 [Compound 380, 6-{4-[(3,4-dichlorophenyl)sulfonyl]piperazin-1-yl}-9-methyl-8-(1-methyl-1H-pyrazol-4-yl)-9H-purine]
500 to 1500	CC(=O)c1ccc(S(=O)(=O)N2CCN(c3ncnc4c3nc(-c3cnn(C)c3)n4C)CC2)cc1 [Compound 384, 1-[4-({4-[9-methyl-8-(1-methyl-1H-pyrazol-4-yl)-9H-purin-6-yl]piperazin-1-yl)sulfonyl)phenyl]ethanone]
50 to 250	COc1ccc(Cl)cc1S(=O)(=O)N1CCN(c2ncnc3c2nc(-c2cnn(C)c2)n3C)CC1 [Compound 388, 6-(4-{[5-chloro-2-(methyloxy)phenyl]sulfonyl}-piperazin-1-yl)-9-methyl-8-(1-methyl-1H-pyrazol-4-yl)-9H-purine]
500 to 1500	Cn1cc(-c2nc3c(N4CCN(S(=O)(=O)c5cccnc5Cl)CC4)ncnc3n2C)cn1 [Compound 390, 6-{4-[(2-chloropyridin-3-yl)sulfonyl]piperazin-1-yl}-9-methyl-8-(1-methyl-1H-pyrazol-4-yl)-9H-purine]
50 to 250	Cn1c(C(=O)N2CC[C@H](F)C2)nc2c(N3CCC(n4c(=O)[nH]c5ccccc54)CC3)ncnc21 [Compound 396, 1-[1-(8-{[(3S)-3-fluoropyrrolidin-1-yl]carbonyl)-9-methyl-9H-purin-6-yl)piperidin-4-yl]-1,3-dihydro-2H-benzimidazol-2-one]
500 to 1500	CN(C)CCN1C(=O)C2(CCN(c3ncnc4c3nc(C(=O)NCC3CC3)n4C)CC2)c2ccccc21 [Compound 397, N-(cyclopropylmethyl)-6-{1-[2-(dimethylamino)ethyl]-2-oxo-1,2-dihydro-1′H-spiro[indole-3,4′-piperidin]-1′-yl}-9-methyl-9H-purine-8-carboxamide]
